# Where two headings read alike, the source gives them in different places.
# Assays:
# [1] = biological target: T1, rVGAT (RUNC-47, rat unc-47 homologue) (Rattus norvegicus, UniProt O35458); experiment: 3H-GABA transport assay in vesicles from PC12 cells stably expressing rVGAT (RUNC-47); assay type: biochemical
# T1 construct: expressed in transfected cells
# T1 sequence (O35458 1-525): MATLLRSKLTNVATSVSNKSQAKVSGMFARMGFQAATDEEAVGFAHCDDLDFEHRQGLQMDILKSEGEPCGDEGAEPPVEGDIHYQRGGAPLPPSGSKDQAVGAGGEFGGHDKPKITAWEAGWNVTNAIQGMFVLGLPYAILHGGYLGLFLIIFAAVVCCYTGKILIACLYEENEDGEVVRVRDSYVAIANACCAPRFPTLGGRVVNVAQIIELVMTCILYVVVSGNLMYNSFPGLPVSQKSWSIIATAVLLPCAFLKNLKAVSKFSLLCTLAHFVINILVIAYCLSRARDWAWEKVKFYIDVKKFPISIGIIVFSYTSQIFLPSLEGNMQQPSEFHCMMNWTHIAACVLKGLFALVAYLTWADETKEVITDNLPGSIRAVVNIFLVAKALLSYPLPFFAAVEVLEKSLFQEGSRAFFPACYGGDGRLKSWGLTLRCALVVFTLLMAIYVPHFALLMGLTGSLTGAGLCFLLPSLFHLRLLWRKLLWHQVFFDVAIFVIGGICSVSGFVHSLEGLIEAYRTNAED
# Procedure: Stable PC12 transformants expressing high levels of the putative transport protein were isolated by screening cell clones with fluorescent-tagged antibodies generated against the rat unc-47 homologue RUNC-47. […] A population of light vesicles was then isolated from two stable transformants and purified by differential centrifugation (Example 7).
# Hereafter, the terms RUNC-47 and rVGAT are used interchangeably.
# These studies were carried out in the transport assay detailed in Example 8, using synaptic vesicles prepared from transfected PC-12 cells, as described above and detailed in Example 7.
# Briefly, vesicles were prepared from PC12 cell clone B1 stably expressing rVGAT and from un-transfected cells.
# The rat unc-47 homologue cDNA subcloned into the plasmid expression vector pcDNA3-Amp (InVitrogen; Carlsbad, Calif.) was introduced into PC12 cells by electroporation (Grote, et al., Cell 81, 581-589, 1995). […] The nuclear debris was sedimented at 100 g for 5 minutes and heavier membranes were eliminated by centrifugation at 27,000 g for 1 hour The remaining light membrane vesicles were sedimented at 65,000 g for 1 hour and resuspended in SH containing the same protease inhibitors at a final concentration of approximately 10 μg protein/μl.
# Incubation was performed at 29° C. for varying intervals and the reaction was terminated by rapid filtration (Supor 200, Gelman; AnnArbor, Mich.), followed by immediate washing with 6 ml cold 0.15 M KCl. Background uptake was determined by incubation at 4° C. for 0 minutes. The bound radioactivity was measured by scintillation counting in 2.5 ml Cytoscint (ICN). […] Nigericin and valinomycin were dissolved in ethanol and added to final concentrations of 5 μM and 20 μM respectively. Transport measurements were performed in duplicate and repeated three or more times using at least two different membrane preparations.
# [2] = biological target: T2, vesicular monoamine transporter 1 (VMAT1) (Rattus norvegicus, UniProt Q01818); experiment: Serotonin transport by endogenous VMAT1 in the same PC12 cell membrane preparations; assay type: biochemical
# T2 construct: transport of serotonin by endogenous VMAT1; endogenous in cells; host or cells: PC12 cells (clone B1 stably expressing rVGAT), light membrane vesicles
# T2 sequence (Q01818 1-521): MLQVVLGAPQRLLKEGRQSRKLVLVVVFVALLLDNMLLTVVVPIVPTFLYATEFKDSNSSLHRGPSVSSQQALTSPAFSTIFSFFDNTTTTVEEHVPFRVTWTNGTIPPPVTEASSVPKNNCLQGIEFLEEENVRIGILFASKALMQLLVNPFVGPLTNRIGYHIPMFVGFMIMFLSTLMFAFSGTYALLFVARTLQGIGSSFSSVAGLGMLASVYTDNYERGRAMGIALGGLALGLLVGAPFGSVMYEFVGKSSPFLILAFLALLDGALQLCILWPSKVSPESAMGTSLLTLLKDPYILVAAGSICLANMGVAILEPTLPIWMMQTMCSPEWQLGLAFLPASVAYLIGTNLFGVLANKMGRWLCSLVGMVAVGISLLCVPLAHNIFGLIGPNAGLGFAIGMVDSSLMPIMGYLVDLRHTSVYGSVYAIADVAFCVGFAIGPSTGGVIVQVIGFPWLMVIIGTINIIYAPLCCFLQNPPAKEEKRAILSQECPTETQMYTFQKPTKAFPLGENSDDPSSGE
# From the text: Since nigericin inhibits VMAT1 activity on these vesicles to a greater extent (approximately 65%) than it inhibits rVGAT activity, vesicular transport of serotonin has a greater dependence on ΔpH. […] Thus, rVGAT and VMAT1 depend on both components of the electrochemical gradient but VMAT1 depends to a greater extent on ΔpH, consistent with previous results using mixed populations of synaptic vesicles.
# [3] = biological target: RUNC-47 (rVGAT) (Rattus norvegicus, UniProt O35458)
# [4] = substrate: NCCCC(=O)O; experiment: cells, lysate or membranes named; conditions: other: transfected PC12 cell vesicles; uptake measured at 30 seconds; pH 7.4; 29.0 °C
molecule,measurement,setting,value
CCCC(=O)O [n-butyric acid],IC50,[1],43.5 mM
same,"Inhibition of rVGAT activity (3H-GABA transport), in words","[1]; vesicles from rVGAT-transfected PC12 cells, about 40 μM GABA",inhibits both rVGAT activity and GABA transport into brain synaptic vesicles
CC(C)[C@@H]1NC(=O)[C@H](C)OC(=O)[C@@H](C(C)C)NC(=O)[C@@H](C(C)C)OC(=O)[C@H](C(C)C)NC(=O)[C@H](C)OC(=O)[C@@H](C(C)C)NC(=O)[C@@H](C(C)C)OC(=O)[C@H](C(C)C)NC(=O)[C@H](C)OC(=O)[C@@H](C(C)C)NC(=O)[C@@H](C(C)C)OC1=O [valinomycin],Effect on residual VMAT1 activity of adding valinomycin to nigericin,"[2]; valinomycin added to nigericin, same PC12 membranes",eliminates the residual VMAT1 activity
same,Effect on rVGAT activity of adding valinomycin to nigericin,"[1]; valinomycin 20 FM added to nigericin 5 FM, PC12 clone B1 membranes",eliminates rVGAT activity
N[C@@H](CCC(=O)O)C(=O)O [glutamate],"Inhibition of rVGAT activity (3H-GABA transport), in words",[1],does not inhibit rVGAT activity even at extremely high concentrations
same,IC50,"[1]; read-out: Inhibition of GABA Transport by Structurally Related Compounds, IC50, vesicles from rVGAT-transfected PC12 cells, about 40 μM GABA including radiolabeled GABA",> 100 mM
NCC(=O)O [glycine],Uptake of 3H-glycine by RUNC-47 PC-12 vesicle preparations,[3],no significant uptake
same,IC50,[1],27.5 mM
same,"Inhibition of rVGAT activity (3H-GABA transport), in words",[1],relatively low potency
C=CC(N)CCC(=O)O (stereo not drawn) [gamma-vinyl-GABA],IC50,[1],7.5 mM
same,"Inhibition of rVGAT activity (3H-GABA transport), in words",[1],as potently as unlabelled GABA
"NCCCC(=O)O [GABA, gamma-aminobutyric acid]",IC50,[1],4.75 mM
CO[C@@H]1C[C@@H](C[C@H]2CC[C@H](C)[C@H]([C@@H](C)C(=O)O)O2)O[C@]2(O[C@](C)([C@H]3CC[C@@](C)([C@@H]4O[C@@H]([C@H]5O[C@@](O)(CO)[C@H](C)C[C@@H]5C)C[C@@H]4C)O3)C[C@H]2C)[C@@H]1C [nigericin],Inhibition of serotonin transport by endogenous VMAT1,"[2]; nigericin, membranes from transfected PC12 cells that express VGAT",approximately 65%
same,Inhibition of GABA transport in rVGAT transfected cells,"[1]; nigericin 5 FM, PC12 clone B1 membranes",approximately 40%
"rVGAT (RUNC-47, rat unc-47 homologue) (Rattus norvegicus) (protein) MATLLRSKLTNVATSVSNKSQAKVSGMFARMGFQAATDEEAVGFAHCDDLDFEHRQGLQMDILKSEGEPCGDEGAEPPVEGDIHYQRGGAPLPPSGSKDQAVGAGGEFGGHDKPKITAWEAGWNVTNAIQGMFVLGLPYAILHGGYLGLFLIIFAAVVCCYTGKILIACLYEENEDGEVVRVRDSYVAIANACCAPRFPTLGGRVVNVAQIIELVMTCILYVVVSGNLMYNSFPGLPVSQKSWSIIATAVLLPCAFLKNLKAVSKFSLLCTLAHFVINILVIAYCLSRARDWAWEKVKFYIDVKKFPISIGIIVFSYTSQIFLPSLEGNMQQPSEFHCMMNWTHIAACVLKGLFALVAYLTWADETKEVITDNLPGSIRAVVNIFLVAKALLSYPLPFFAAVEVLEKSLFQEGSRAFFPACYGGDGRLKSWGLTLRCALVVFTLLMAIYVPHFALLMGLTGSLTGAGLCFLLPSLFHLRLLWRKLLWHQVFFDVAIFVIGGICSVSGFVHSLEGLIEAYRTNAED",Km,[4],5 mM
